Test system: c-myc in 22RV-1 cells
Assay: Human c-myc ELISA assay
Format: cell-based
Conditions: Homo sapiens; for Emax: 22Rv1, 18 h, read-out: Degradation of BRD4: Maximum inhibition (%) c-Myc ELISA in 22RV1 cells; for DC50: 22Rv1, read-out: Degradation of BRD4: DC50 (uM) c-Myc ELISA in 22RV1 cells
Outline: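 c-myc levels measured by ELISA in RIPA lysates of 22RV-1 cells, calibrated with a 333-0 pg/ml standard curve. Lysates came from cells exposed for 18 h to an 8-point, 1:3 dose series starting at 300 nM or 1 μM final in 0.1% DMSO. Suppression potency given as DC50.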

What does the source list for `Cc1ncsc1-c1ccc(CNC(=O)[C@@H]2C[C@@H](O)CN2C(=O)[C@H](C(C)C)N2Cc3ccccc3C2=O)c(OCCOCCOCCCOCCOCCNC(=O)C[C@@H]2N=C(c3ccc(Cl)cc3)c3c(sc(C)c3C)-n3c(C)nnc32)c1` [Example 5]?
Emax: 25%; DC50: > 1 µM

How did the Emax turn out when `Cc1ncsc1-c1ccc([C@H](C)NC(=O)[C@@H]2C[C@@H](O)CN2C(=O)[C@H](C(C)C)n2cc(-c3cc(F)cc(OCCNC(=O)C[C@@H]4N=C(c5ccc(Cl)cc5)c5c(sc(C)c5C)-n5c(C)nnc54)c3)cn2)cc1` [Example 224] was run?
Its Emax is 100%.

And the DC50?
The DC50 was less than 0.01 µM.

How did the Emax turn out when `Cc1ncsc1-c1ccc([C@H](C)NC(=O)[C@@H]2C[C@@H](O)CN2C(=O)[C@@H](NC(=O)CCOCCN2CCN(C(=O)C[C@@H]3N=C(c4ccc(Cl)cc4)c4c(sc(C)c4C)-n4c(C)nnc43)CC2)C(C)(C)C)cc1` [Example 318] was run?
Its Emax is 79%.

And the DC50?
Its DC50 is 0.1 to 1 µM.

Which Emax does the source give for `Cc1ncsc1-c1ccc(CNC(=O)[C@@H]2C[C@@H](O)CN2C(=O)[C@@H](NC(=O)COCCOCCOc2ccc3c(c2)c2c(C(N)=O)cc(-c4c(C)noc4C)cc2n3Cc2ccccc2)C(C)(C)C)cc1` [Example 174] here?
Its Emax is 96.4%.

And the DC50?
Its DC50 is 0.01 to 0.1 µM.

Which Emax does the source give for `Cc1ncsc1-c1ccc(CNC(=O)[C@@H]2C[C@@H](O)CN2C(=O)[C@@H](NC(=O)COCCn2ccc(-c3ccc([C@@H](C)NC(=O)C[C@@H]4N=C(c5ccc(Cl)cc5)c5c(sc(C)c5C)-n5c(C)nnc54)cc3)cc2=O)C(C)(C)C)cc1` [Example 35] here?
The Emax was 37%.

And the DC50?
The DC50 was greater than 1 µM.

Which Emax does the source give for `Cc1ncsc1-c1ccc(CNC(=O)[C@@H]2C[C@@H](O)CN2C(=O)[C@@H](NC(=O)COCCCOCCCCOc2ccc3c(c2)c2c(C(N)=O)cc(-c4c(C)noc4C)cc2n3Cc2ccccc2)C(C)(C)C)cc1` [Example 117, 9-benzyl-2-(dimethyl-1,2-oxazol-4-yl)-6-{4-[3-({[(2S)-1-[(2S,4R)-4-hydroxy-2-({[4-(4-methyl-1,3-thiazol-5-yl)phenyl]methyl}carbamoyl)pyrrolidin-1-yl]-3,3-dimethyl-1-oxobutan-2-yl]carbamoyl}methoxy)propoxy]butoxy}-9H-carbazole-4-carboxamide] here?
Its Emax is 100%.

And the DC50?
Its DC50 is less than 0.01 µM.

How did the Emax turn out when `Cc1ncsc1-c1ccc([C@H](C)NC(=O)[C@@H]2C[C@@H](O)CN2C(=O)[C@@H](NC(=O)COc2ccc(N3CC[C@@H](NC(=O)C[C@@H]4N=C(c5ccc(Cl)cc5)c5c(sc(C)c5C)-n5c(C)nnc54)C3)nc2)C(C)(C)C)cc1` [Example 242] was run?
Its Emax is 98%.

And the DC50?
The DC50 was less than 0.01 µM.

`Cc1ncsc1-c1ccc([C@H](C)NC(=O)[C@@H]2C[C@@H](O)CN2C(=O)[C@@H](NC(=O)/C=C/c2cc(O[C@@H](C)CNC(=O)C[C@@H]3N=C(c4ccc(Cl)cc4)c4c(sc(C)c4C)-n4c(C)nnc43)ccc2F)C(C)(C)C)cc1` [Example 196] was tested. Which Emax did it give?
The Emax was 94.5%.

What about the DC50 of the same compound?
Its DC50 is less than 0.01 µM.

For `Cc1sc2c(c1C)C(c1ccc(Cl)cc1)=N[C@@H](CC(=O)N[C@H]1C[C@H](Oc3ccc(CC(=O)N[C@H](C(=O)N4C[C@H](O)C[C@H]4C(=O)N[C@@H](C)c4ccc(-n5ccnc5C)cc4)C(C)(C)C)cc3)C1)c1nnc(C)n1-2` [Example 272], which Emax is on record?
The Emax was 95.9%.

What about the DC50 of the same compound?
Its DC50 is 0.01 to 0.1 µM.

For `Cc1ncsc1-c1ccc([C@H](C)NC(=O)[C@@H]2C[C@@H](O)CN2C(=O)[C@H](C(C)C)n2cc(-c3ccnc(O[C@H]4C[C@@H](NC(=O)C[C@@H]5N=C(c6ccc(Cl)cc6)c6c(sc(C)c6C)-n6c(C)nnc65)C4)c3)cn2)cc1` [Example 219, (2S,4R)-4-hydroxy-N-[(1S)-1-[4-(4-methyl-1,3-thiazol-5-yl)phenyl]ethyl]-1-[(2S)-3-methyl-2-(4-{2-[(1,3-cis)-3-{2-[(9S)-7-(4-chlorophenyl)-4,5,13-trimethyl-3-thia-1,8,11,12-tetraazatricyclo[8.3.0.0^2,^6]trideca-2(6),4,7,10,12-pentaen-9-yl]acetamido}cyclobutoxy]pyridin-4-yl}-1H-pyrazol-1-yl)butanoyl]pyrrolidine-2-carboxamide], which Emax is on record?
Its Emax is 95.5%.

And the DC50?
Its DC50 is less than 0.01 µM.

Which Emax does the source give for `Cc1ncsc1-c1ccc([C@H](C)NC(=O)[C@@H]2C[C@@H](O)CN2C(=O)[C@@H](NC(=O)CCc2cc(F)cc(OCCNC(=O)C[C@@H]3N=C(c4ccc(Cl)cc4)c4c(sc(C)c4C)-n4c(C)nnc43)c2)C(C)(C)C)cc1` [Example 150, (2S,4R)-1-[(2S)-2-{3-[3-(2-{2-[(9S)-7-(4-chlorophenyl)-4,5,13-trimethyl-3-thia-1,8,11,12-tetraazatricyclo[8.3.0.0^2,^6]trideca-2(6),4,7,10,12-pentaen-9-yl]acetamido}ethoxy)-5-fluorophenyl]propanamido}-3,3-dimethylbutanoyl]-4-hydroxy-N-[(1S)-1-[4-(4-methyl-1,3-thiazol-5-yl)phenyl]ethyl]pyrrolidine-2-carboxamide] here?
Its Emax is 93.9%.

And the DC50?
Its DC50 is less than 0.01 µM.

What does the source list for `Cc1ncsc1-c1ccc([C@H](C)NC(=O)[C@@H]2C[C@@H](O)CN2C(=O)[C@@H](NC(=O)CCCCOCCCNC(=O)C[C@@H]2N=C(c3ccc(Cl)cc3)c3c(sc(C)c3C)-n3c(C)nnc32)C(C)(C)C)cc1` [Example 176]?
Emax: 90.3%; DC50: < 0.01 µM

How did the Emax turn out when `Cc1sc2c(c1C)C(c1ccc(Cl)cc1)=N[C@@H](CC(=O)N[C@H]1C[C@@H](Oc3cccc(-c4cnn([C@H](C(=O)N5C[C@H](O)C[C@H]5C(=O)N[C@@H](C)c5ccc(-n6ccnc6C)cc5)C(C)C)c4)c3)C1)c1nnc(C)n1-2` [Example 299] was run?
The Emax was 72.5%.

And the DC50?
The DC50 was 0.1 to 1 µM.

With `Cc1ncoc1-c1ccc(CNC(=O)[C@@H]2C[C@@H](O)CN2C(=O)[C@@H](NC(=O)COc2ccc(O[C@H]3C[C@@H](NC(=O)C[C@@H]4N=C(c5ccc(Cl)cc5)c5c(sc(C)c5C)-n5c(C)nnc54)C3)nc2)C(C)(C)C)cc1` [Example 258] as the compound, how does the Emax read?
The Emax was 87.5%.

What about the DC50 of the same compound?
The DC50 was 0.01 to 0.1 µM.

How did the Emax turn out when `Cc1ncsc1-c1ccc([C@H](C)NC(=O)[C@@H]2C[C@@H](O)CN2C(=O)[C@@H](NC(=O)COc2ccc(N3CCN(C(=O)C[C@@H]4N=C(c5ccc(Cl)cc5)c5c(sc(C)c5C)-n5c(C)nnc54)CC3)nc2)C(C)(C)C)cc1` [Example 288] was run?
Its Emax is 98%.

What about the DC50 of the same compound?
The DC50 was less than 0.01 µM.

`Cc1ncsc1-c1ccc([C@H](C)NC(=O)[C@@H]2C[C@@H](O)CN2C(=O)[C@@H](NC(=O)COCCCOCCCCOc2ccc3c(c2)c2c(C(N)=O)cc(-c4c(C)noc4C)cc2n3Cc2ccccc2)C(C)(C)C)cc1` [Example 166] was tested. Which Emax did it give?
Its Emax is 97%.

What about the DC50 of the same compound?
Its DC50 is less than 0.01 µM.

With `Cc1ncsc1-c1ccc(CNC(=O)[C@@H]2C[C@@H](O)CN2C(=O)[C@@H](NC(=O)COCCCOc2ccc(-c3ccc(NC(=O)C[C@@H]4N=C(c5ccc(Cl)cc5)c5c(sc(C)c5C)-n5c(C)nnc54)cn3)cc2F)C(C)(C)C)cc1` [Example 23] as the compound, how does the Emax read?
The Emax was 91%.

And the DC50?
Its DC50 is 0.01 to 0.1 µM.

Which results are given for `Cc1sc2c(c1C)C(c1ccc(Cl)cc1)=N[C@@H](CC(=O)N[C@H]1C[C@@H](Oc3cccc(-c4cnn([C@H](C(=O)N5C[C@H](O)C[C@H]5C(=O)N[C@@H](C)c5ccc(-c6nccn6C)cc5)C(C)C)c4)c3)C1)c1nnc(C)n1-2` [Example 291]?
Emax: 22.2%; DC50: > 1 µM

`Cc1ncsc1-c1ccc(CNC(=O)[C@@H]2C[C@@H](O)CN2C(=O)[C@@H](c2cc(OCCN3CCC(NC(=O)C[C@@H]4N=C(c5ccc(Cl)cc5)c5c(sc(C)c5C)-n5c(C)nnc54)CC3)no2)C(C)C)cc1` [Example 314] was tested. Which Emax did it give?
Its Emax is 87%.

What about the DC50 of the same compound?
The DC50 was less than 0.01 µM.

How did the Emax turn out when `CNC[C@@H](NC(=O)[C@@H]1C[C@@H](O)CN1C(=O)[C@@H](NC(=O)COCCCOCCNC(=O)C[C@@H]1N=C(c2ccc(Cl)cc2)c2c(sc(C)c2C)-n2c(C)nnc21)C(C)(C)C)c1ccc(-c2scnc2C)cc1` [Example 111] was run?
Its Emax is 47.3%.

And the DC50?
Its DC50 is greater than 1 µM.

Which Emax does the source give for `Cc1ncsc1-c1ccc([C@H](C)NC(=O)[C@@H]2C[C@@H](O)CN2C(=O)[C@@H](NC(=O)CN2CCN(C3CC4(C3)CN(C(=O)C[C@@H]3N=C(c5ccc(Cl)cc5)c5c(sc(C)c5C)-n5c(C)nnc53)C4)[C@@H](C)C2)C(C)(C)C)cc1` [Example 354, (2S,4R)-1-[(2S)-2-{2-[(3S)-4-(2-{2-[(9S)-7-(4-chlorophenyl)-4,5,13-trimethyl-3-thia-1,8,11,12-tetraazatricyclo[8.3.0.0^2,^6]trideca-2(6),4,7,10,12-pentaen-9-yl]acetyl}-2-azaspiro[3.3]heptan-6-yl)-3-methyl-piperazin-1-yl]acetamido}-3,3-dimethylbutanoyl]-4-hydroxy-N-[(1S)-1-[4-(4-methyl-1,3-thiazol-5-yl)phenyl]ethyl]pyrrolidine-2-carboxamide] here?
Its Emax is 100%.

What about the DC50 of the same compound?
Its DC50 is 0.01 to 0.1 µM.

With `Cc1ncsc1-c1ccc(CNC(=O)[C@@H]2C[C@@H](O)CN2C(=O)[C@@H](NC(=O)COCCOCCOCCCCOc2ccc(NC(=O)C[C@@H]3N=C(c4ccc(Cl)cc4)c4c(sc(C)c4C)-n4c(C)nnc43)cc2)C(C)(C)C)cc1` [Example 14] as the compound, how does the Emax read?
The Emax was 100%.

And the DC50?
The DC50 was 0.01 to 0.1 µM.

`Cc1ncsc1-c1ccc([C@H](C)NC(=O)[C@@H]2C[C@@H](O)CN2C(=O)[C@H](C(C)C)n2cc(-c3ccc(N4CC(NC(=O)C[C@@H]5N=C(c6ccc(Cl)cc6)c6c(sc(C)c6C)-n6c(C)nnc65)C4)nc3)cn2)cc1` [Example 265] was tested. Which Emax did it give?
Its Emax is 95.9%.

And the DC50?
The DC50 was 0.01 to 0.1 µM.

What does the source list for `Cc1ncsc1-c1ccc([C@H](C)NC(=O)[C@@H]2C[C@@H](O)CN2C(=O)[C@H](n2cc(-c3ccnc(O[C@H]4C[C@H](NC(=O)C[C@@H]5N=C(c6ccc(Cl)cc6)c6c(sc(C)c6C)-n6c(C)nnc65)C4)c3)cn2)C(C)(C)C)cc1` [Example 233]?
Emax: 26%; DC50: > 1 µM

What does the source list for `Cc1ncsc1-c1ccc(CNC(=O)[C@@H]2C[C@@H](O)CN2C(=O)[C@@H](NC(=O)COCc2ccc(Oc3cccc(NC(=O)C[C@@H]4N=C(c5ccc(Cl)cc5)c5c(sc(C)c5C)-n5c(C)nnc54)c3)cc2)C(C)(C)C)cc1` [Example 95]?
Emax: 99.5%; DC50: < 0.01 µM

Source: patent US11554171B2, “Compounds and methods for the targeted degradation of bromodomain-containing proteins” (Arvinas Operations, Inc., priority 2015, dated 2023)
